Drawing on ChEMBL document CHEMBL4602737, “Structure-Guided Identification of DNMT3B Inhibitors” (ACS Med Chem Lett, 2020), this text covers IC50, LD50 and CC50 for 11 compounds.

Data set [1] deals with T1, DNA (cytosine-5)-methyltransferase 3B (Homo sapiens, UniProt Q9UBC3). Kind of data set: Inhibition of human recombinant DNMT3B expressed in baculovirus infected insect cells using CpG site containing internally quenched hairpin oligonucleotide DNA substrate and SAM incubated for 30 mins by kinetic fluorogenic assay.
In data set [2] the target is DNA (cytosine-5)-methyltransferase 1 (Homo sapiens, UniProt P26358). Put plainly: Inhibition of human recombinant DNMT1 expressed in baculovirus infected insect cells using CpG site containing internally quenched hairpin oligonucleotide DNA substrate and SAM incubated for 30 mins by kinetic fluorogenic assay.
DNA (cytosine-5)-methyltransferase 1, sequence (P26358 whole entry): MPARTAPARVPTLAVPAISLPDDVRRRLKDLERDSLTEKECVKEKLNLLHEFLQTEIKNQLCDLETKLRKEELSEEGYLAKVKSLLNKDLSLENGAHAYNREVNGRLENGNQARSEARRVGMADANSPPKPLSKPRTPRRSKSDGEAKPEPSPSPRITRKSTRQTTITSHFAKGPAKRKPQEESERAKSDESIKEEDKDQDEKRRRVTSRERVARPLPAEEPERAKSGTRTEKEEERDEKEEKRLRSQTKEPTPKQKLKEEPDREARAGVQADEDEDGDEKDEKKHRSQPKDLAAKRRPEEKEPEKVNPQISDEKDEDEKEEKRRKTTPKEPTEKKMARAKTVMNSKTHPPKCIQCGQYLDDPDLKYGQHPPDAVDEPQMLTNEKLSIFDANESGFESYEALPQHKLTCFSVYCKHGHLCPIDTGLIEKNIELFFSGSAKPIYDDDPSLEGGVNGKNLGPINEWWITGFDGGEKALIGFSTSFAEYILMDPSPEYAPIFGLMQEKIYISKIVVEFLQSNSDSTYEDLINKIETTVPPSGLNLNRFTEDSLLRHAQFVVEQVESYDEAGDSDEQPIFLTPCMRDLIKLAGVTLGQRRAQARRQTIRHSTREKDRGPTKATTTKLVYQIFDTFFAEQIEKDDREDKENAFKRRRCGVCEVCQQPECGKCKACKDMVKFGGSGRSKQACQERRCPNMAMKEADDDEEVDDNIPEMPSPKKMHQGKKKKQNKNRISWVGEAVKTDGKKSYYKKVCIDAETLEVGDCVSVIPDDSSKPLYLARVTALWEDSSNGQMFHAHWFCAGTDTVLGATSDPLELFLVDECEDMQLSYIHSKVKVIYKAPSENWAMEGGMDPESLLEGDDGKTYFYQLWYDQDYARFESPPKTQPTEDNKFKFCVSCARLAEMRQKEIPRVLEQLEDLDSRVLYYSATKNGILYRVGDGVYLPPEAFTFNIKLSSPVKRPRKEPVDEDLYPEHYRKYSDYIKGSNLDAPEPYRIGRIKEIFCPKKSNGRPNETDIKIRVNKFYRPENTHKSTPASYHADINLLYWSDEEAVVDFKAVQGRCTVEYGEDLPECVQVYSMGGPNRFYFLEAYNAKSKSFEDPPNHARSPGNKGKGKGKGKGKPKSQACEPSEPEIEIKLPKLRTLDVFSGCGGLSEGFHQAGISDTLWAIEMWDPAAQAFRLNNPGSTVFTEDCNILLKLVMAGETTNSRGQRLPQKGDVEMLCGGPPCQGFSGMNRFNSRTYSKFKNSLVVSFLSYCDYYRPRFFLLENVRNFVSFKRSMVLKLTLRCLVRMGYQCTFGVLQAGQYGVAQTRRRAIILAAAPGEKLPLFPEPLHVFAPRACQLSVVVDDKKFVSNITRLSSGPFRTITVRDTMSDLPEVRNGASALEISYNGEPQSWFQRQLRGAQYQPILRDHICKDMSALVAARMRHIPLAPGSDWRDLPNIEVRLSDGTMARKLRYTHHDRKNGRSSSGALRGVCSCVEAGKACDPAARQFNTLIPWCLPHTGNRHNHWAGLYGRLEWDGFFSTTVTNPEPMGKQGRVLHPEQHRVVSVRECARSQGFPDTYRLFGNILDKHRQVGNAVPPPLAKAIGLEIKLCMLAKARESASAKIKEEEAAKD
The nature of data set [3]: Toxicity in mouse. It is filed as organism-based. The note with it: in vivo.
A short description of data set [4]: Cytotoxicity in African green monkey Vero cells assessed as reduction in cell viability. Conditions: chlorocebus sabaeus; call rule not given here. It is filed as cell-based.
The target in data set [5] is T1, DNA (cytosine-5)-methyltransferase 3B. Kind of data set: Inhibition of human recombinant DNMT3B expressed in baculovirus infected insect cells by DRONE assay.

In the case of `O=C(O)[C@H](Cc1c[nH]c2ccccc12)N1C(=O)c2ccccc2C1=O`, the IC50 in data set [1] (read-out: IC50) was 900 nM. Consider `CN(Cc1ccc2cc[nH]c2c1)C(=O)CCc1cccc(-c2nc3ccccc3[nH]2)c1`, for which the 50% inhibitory concentration (IC50) result in data set [1] was “Not Active”.

Take `CN(Cc1ccc2cc[nH]c2c1)C(=O)CCc1cccc(-c2cc3ccccc3[nH]2)c1`: in data set [1], the IC50 entry is recorded as “Not Active”. The same measure, in the same setting: under `CN(Cc1ccc2[nH]ccc2c1)C(=O)CCc1cccc(-c2nc3ccccc3[nH]2)c1` stands “Not Active”; under `O=C(CCc1cccc(-c2nc3ccccc3[nH]2)c1)NCc1ccc2[nH]ncc2c1`, “Not Active”. Same read-out and setting: under `CN(Cc1ccc2cn[nH]c2c1)C(=O)CCc1cccc(-c2cc3ccccc3[nH]2)c1` stands “Not Active”; under `CN(Cc1ccc2[nH]ccc2c1)C(=O)CCc1cccc(-c2cc3ccccc3[nH]2)c1`, “Not Active”. `O=C(CSc1ncnc2sccc12)N1CCN(Cc2cc(=O)n3ccsc3n2)CC1`: the IC50 in data set [2] was 27200 nM.

As for `CN(Cc1ccc2cn[nH]c2c1)C(=O)CCc1cccc(-c2nc3ccccc3[nH]2)c1`, the IC50 entry in data set [1] is “Not Active”. `Cc1ccc2c(=O)c(-c3nc(-c4cccc(F)c4)no3)cn(CC(=O)Nc3ccc4c(c3)OCO4)c2n1`: the IC50 in data set [2] turned out to be 28500 nM. `C[C@@H]1O[C@@H](CC(=O)O)CC2=C1C(=O)c1c(O)cccc1C2=O` [NANAFROCIN]: in data set [3], the LD50 is 28 mg/kg. Further, the CC50 in data set [4] was 700 nM. Further, the IC50 was 1500 nM in data set [1] (read-out: IC50) and 730 nM in data set [5].

In general, IC50 refers to the concentration that gives 50% inhibition. As usually defined, the LD50 is the dose expected to kill half of the subjects tested. In general, CC50 refers to the concentration giving 50% cytotoxicity.
